Experimental findings from patent US10336730B2, “Substituted glycine derived FXIA inhibitors” (BRISTOL-MYERS SQUIBB COMPANY, priority 2015, dated 2019) are described below.

Experiment [1] addresses T1, purified human plasma kallikrein (Homo sapiens, UniProt P03952).
T1 construct: purchased Enzyme Research Laboratories
As to the kind of experiment: Plasma kallikrein enzyme inhibition assay (chromogenic substrate S-2302), Ki. Format: biochemical. The note with it: substrate S-2302, pH 7.5. On the procedure:
The effectiveness of compounds of the present invention as inhibitors of the coagulation Factors XIa, VIIa, IXa, Xa, XIIa, plasma kallikrein, thrombin, chemytrypsin or trypsin can be determined using a relevant purified serine protease, respectively, and an appropriate synthetic substrate. The rate of hydrolysis of the chromogenic or fluorogenic substrate by the relevant serine protease was measured both in the absence and presence of compounds of the present invention. […] A decrease in the rate of absorbance or fluorescence change in the presence of inhibitor is indicative of enzyme inhibition. Such methods are known to one skilled in the art. The results of this assay are expressed as the inhibitory constant, Ki.
Plasma kallikrein determinations were made in 0.1 M sodium phosphate buffer at a pH of 7.5 containing 0.1-0.2 M sodium chloride and 0.5% PEG 8000. Determinations were made using purified human plasma kallikrein (Enzyme Research Laboratories) at a final assay concentration of […] and the synthetic substrate S-2302 (H-(D)-Pro-Phe-Arg-pNA; CHROMOGENIX®) at a concentration of 0.00008-0.0004 M.
Values of Ki were determined by allowing the protease to react with the substrate in the presence of the inhibitor. Reactions were allowed to go for periods of 20-180 minutes (depending on the protease) and the velocities (rate of absorbance or fluorescence change versus time) were measured. The following relationships were used to calculate Ki values: (Vmax*S)/(Km+S) (vo−vs)/vs=I/(Ki*(1+S/Km)) for a competitive inhibitor with one binding site; or vs/vo=A+(B−A)/(1+(IC50/(I)^n)); and Ki=IC50/(1+S/Km) for a competitive inhibitor where: […]

Experiment [2] has as its target T2, purified human Factor XIa (Homo sapiens, UniProt P03951).
T2 construct: purchased Haematologic Technologies
As to the kind of experiment: Factor XIa enzyme inhibition assay (chromogenic substrate S-2366), Ki. In kind it is biochemical. The following applies: substrate S-2366, pH 7.4. Summed up:
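Purified human Factor XIa ([…] final) with chromogenic substrate S-2366 (0.0002-0.001 M) in 50 mM HEPES pH 7.4, 145 mM NaCl, 5 mM KCl, 0.1% PEG 8000. Velocities measured over 20-180 minutes with and without inhibitor; Ki derived assuming competitive inhibition, e.g. Ki=IC50/(1+S/Km).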

pKi: −log10 of the molar value.

As a reminder, the pKi is the negative decadic logarithm of the Ki, by convention in mol/L. A higher pKi goes with a low Ki.

T2 sequence (P03951 388-625 limits assumed): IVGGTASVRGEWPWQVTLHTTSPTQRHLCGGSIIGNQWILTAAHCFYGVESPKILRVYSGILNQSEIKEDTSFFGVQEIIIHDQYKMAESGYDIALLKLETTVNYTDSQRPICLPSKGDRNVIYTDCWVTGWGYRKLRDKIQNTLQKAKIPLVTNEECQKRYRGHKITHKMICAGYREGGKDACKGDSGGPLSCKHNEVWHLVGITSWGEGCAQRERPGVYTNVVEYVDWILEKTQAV
T2 sequence (P03951 19-387 partner limits assumed): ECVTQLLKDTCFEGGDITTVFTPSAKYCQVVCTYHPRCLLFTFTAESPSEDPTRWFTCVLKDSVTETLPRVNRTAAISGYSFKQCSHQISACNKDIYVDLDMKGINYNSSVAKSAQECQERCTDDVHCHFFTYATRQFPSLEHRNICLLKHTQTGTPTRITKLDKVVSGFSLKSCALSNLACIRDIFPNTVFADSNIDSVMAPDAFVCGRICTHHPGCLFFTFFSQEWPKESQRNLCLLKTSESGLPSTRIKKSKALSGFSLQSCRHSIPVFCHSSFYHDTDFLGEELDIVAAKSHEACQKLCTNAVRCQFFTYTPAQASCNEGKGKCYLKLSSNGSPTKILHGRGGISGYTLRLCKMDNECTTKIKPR
T1 sequence (P03952 391-638 limits assumed): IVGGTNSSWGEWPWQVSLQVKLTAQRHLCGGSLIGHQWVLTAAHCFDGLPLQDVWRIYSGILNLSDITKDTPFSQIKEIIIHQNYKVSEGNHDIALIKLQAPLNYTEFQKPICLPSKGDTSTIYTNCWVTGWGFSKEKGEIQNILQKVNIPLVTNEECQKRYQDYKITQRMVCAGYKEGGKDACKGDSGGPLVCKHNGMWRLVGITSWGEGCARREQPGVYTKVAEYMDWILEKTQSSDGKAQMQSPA
T1 sequence (P03952 20-390 partner limits assumed): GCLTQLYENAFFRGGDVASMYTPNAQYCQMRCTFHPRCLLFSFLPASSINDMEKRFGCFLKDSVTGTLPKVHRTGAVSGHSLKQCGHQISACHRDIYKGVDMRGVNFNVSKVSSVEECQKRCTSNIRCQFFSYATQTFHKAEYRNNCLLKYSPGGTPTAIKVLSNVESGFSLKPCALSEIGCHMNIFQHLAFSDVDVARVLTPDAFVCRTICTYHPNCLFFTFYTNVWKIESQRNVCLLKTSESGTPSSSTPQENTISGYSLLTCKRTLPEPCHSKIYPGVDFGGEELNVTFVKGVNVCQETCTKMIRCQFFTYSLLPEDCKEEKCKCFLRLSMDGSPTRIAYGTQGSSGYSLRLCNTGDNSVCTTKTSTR

On to `COC(=O)Cn1cc(NC(=O)[C@H](Cc2ccccc2)n2cnc(-c3cc(Cl)ccc3-n3cc(Cl)nn3)cc2=O)cn1` [Example 10, Methyl 2-{4-[(2S)-2-{4-[5-chloro-2-(4-chloro-1H-1,2,3-triazol-1-yl)phenyl]-6-oxo-1,6-dihydropyrimidin-1-yl}-3-phenylpropanamido]-1H-pyrazol-1-yl}acetate], for which the values for the pKi in experiment [1] and in experiment [2] were 5.41 and 6.98, respectively. For `O=C(O)Cn1cc(NC(=O)[C@H](Cc2ccccc2)n2cnc(-c3cc(Cl)ccc3-n3cc(Cl)nn3)cc2=O)cn1` [Example 11, 2-{4-[(2S)-2-{4-[5-Chloro-2-(4-chloro-1H-1,2,3-triazol-1-yl)phenyl]-6-oxo-1,6-dihydropyrimidin-1-yl}-3-phenyl-propanamido]-1H-pyrazol-1-yl}acetic Acid], in that order: 5.68 and 7.25. With `O=C(Nc1ccccc1)[C@H](Cc1ccccc1)n1cnc(-c2cc(Cl)ccc2-n2cc(Cl)nn2)cc1=O` [Example 12, (S)-2-(4-(5-chloro-2-(4-chloro-1H-1,2,3-triazol-1-yl)phenyl)-6-oxopyrimidin-1(6H)-yl)-N,3-diphenylpropanamide], the pKi was 5.83 in experiment [1] and 7.45 in experiment [2]. For `O=C(Nc1ccncc1)[C@H](Cc1ccccc1)n1cnc(-c2cc(Cl)ccc2-n2cc(Cl)nn2)cc1=O` [Example 13, (S)-2-(4-(5-chloro-2-(4-chloro-1H-1,2,3-triazol-1-yl)phenyl)-6-oxopyrimidin-1(6H)-yl)-3-phenyl-N-(pyridin-4-yl)propanamide], the negative-log Ki (pKi) in experiment [1] was 6.01; in experiment [2], 7.36. As for `O=C(Nc1ccc2[nH]c(C(F)(F)F)nc2c1)[C@H](Cc1ccccc1)n1cnc(-c2cc(Cl)ccc2-n2cc(Cl)nn2)cc1=O` [Example 16, (S)-2-(4-(5-chloro-2-(4-chloro-1H-1,2,3-triazol-1-yl)phenyl)-6-oxopyrimidin-1(6H)-yl)-3-phenyl-N-(2-(trifluoromethyl)-1H-benzo[d]imidazol-5-yl)propanamide], the pKi was 6.59 in experiment [1] and 7.59 in experiment [2].

Consider `O=C(Nc1ccc2c(c1)OCO2)[C@H](Cc1ccccc1)n1cnc(-c2cc(Cl)ccc2-n2cc(Cl)nn2)cc1=O` [Example 18, (S)—N-(benzo[d][1,3]dioxol-5-yl)-2-(4-(5-chloro-2-(4-chloro-1H-1,2,3-triazol-1-yl)phenyl)-6-oxopyrimidin-1(6H)-yl)-3-phenylpropanamide], for which the pKi in experiment [1] is 5.83; in experiment [2] it was 7.00. As for `O=C(NCc1ccccc1)[C@H](Cc1ccccc1)n1cnc(-c2cc(Cl)ccc2-n2cc(Cl)nn2)cc1=O` [Example 19, (S)—N-benzyl-2-(4-(5-chloro-2-(4-chloro-1H-1,2,3-triazol-1-yl)phenyl)-6-oxopyrimidin-1(6H)-yl)-3-phenylpropanamide], the negative logarithm of the Ki (pKi) in experiment [1] is 4.88; in experiment [2], 6.45.

`NC(=O)c1ccc(NC(=O)[C@H](Cc2ccccc2)n2cnc(-c3cc(Cl)ccc3-n3cc(Cl)nn3)cc2=O)cc1` [Example 118, (S)-4-(2-(4-(5-chloro-2-(4-chloro-1H-1,2,3-triazol-1-yl)phenyl)-6-oxopyrimidin-1(6H)-yl)-3-phenylpropanamido)benzamide] had a pKi in experiment [2] of 7.48. In experiment [2], `O=C(Nc1cnn(-c2ccc(Cl)cc2)c1)[C@H](Cc1ccccc1)n1cnc(-c2cc(Cl)ccc2-n2cc(Cl)nn2)cc1=O` [Example 119, (S)-2-(4-(5-chloro-2-(4-chloro-1H-1,2,3-triazol-1-yl)phenyl)-6-oxopyrimidin-1(6H)-yl)-N-(1-(4-chlorophenyl)-1H-pyrazol-4-yl)-3-phenylpropanamide] gave a pKi of 6.39.

`O=C(Nc1cnn(-c2ccccc2)c1)[C@H](Cc1ccccc1)n1cnc(-c2cc(Cl)ccc2-n2cc(Cl)nn2)cc1=O` [Example 120, (S)-2-(4-(5-chloro-2-(4-chloro-1H-1,2,3-triazol-1-yl)phenyl)-6-oxopyrimidin-1(6H)-yl)-3-phenyl-N-(1-phenyl-1H-pyrazol-4-yl)propanamide] gave a pKi in experiment [2] of 6.26. In experiment [2], `O=C(Nc1noc2ccccc12)[C@H](Cc1ccccc1)n1cnc(-c2cc(Cl)ccc2-n2cc(Cl)nn2)cc1=O` [Example 121, (S)-N-(benzo[d]isoxazol-3-yl)-2-(4-(5-chloro-2-(4-chloro-1H-1,2,3-triazol-1-yl)phenyl)-6-oxopyrimidin-1(6H)-yl)-3-phenylpropanamide] had a pKi of 6.80. This pKi is 0.54 log units higher than that of the molecule before. `O=C(Nc1n[nH]c2cccnc12)[C@H](Cc1ccccc1)n1cnc(-c2cc(Cl)ccc2-n2cc(Cl)nn2)cc1=O` [Example 122, (S)-2-(4-(5-chloro-2-(4-chloro-1H-1,2,3-triazol-1-yl)phenyl)-6-oxopyrimidin-1(6H)-yl)-3-phenyl-N-(1H-pyrazolo[4,3-b]pyridin-3-yl)propanamide] gave a pKi in experiment [2] of 6.20. Take `O=C(Nc1ccnc2ccc(C(F)(F)F)cc12)[C@H](Cc1ccccc1)n1cnc(-c2cc(Cl)ccc2-n2cc(Cl)nn2)cc1=O` [Example 123, (S)-2-(4-(5-chloro-2-(4-chloro-1H-1,2,3-triazol-1-yl)phenyl)-6-oxopyrimidin-1(6H)-yl)-3-phenyl-N-(6-(trifluoromethyl)quinolin-4-yl)propanamide]: in experiment [2], the pKi was 5.15. The molecule `O=C(Nc1ccnc2ccc(Cl)cc12)[C@H](Cc1ccccc1)n1cnc(-c2cc(Cl)ccc2-n2cc(Cl)nn2)cc1=O` [Example 124, (S)-2-(4-(5-chloro-2-(4-chloro-1H-1,2,3-triazol-1-yl)phenyl)-6-oxopyrimidin-1(6H)-yl)-N-(6-chloroquinolin-4-yl)-3-phenylpropanamide] showed a negative logarithm of the Ki (pKi) in experiment [2] of 5.15. The molecule `O=C(Nc1n[nH]c2ccccc12)[C@H](Cc1ccccc1)n1cnc(-c2cc(Cl)ccc2-n2cc(Cl)nn2)cc1=O` [Example 125, (S)-2-(4-(5-chloro-2-(4-chloro-1H-1,2,3-triazol-1-yl)phenyl)-6-oxopyrimidin-1(6H)-yl)-N-(1H-indazol-3-yl)-3-phenylpropanamide] gave a pKi in experiment [2] of 7.17. The same measure, in the same setting: as for `O=C(Nc1ccnc2[nH]ncc12)[C@H](Cc1ccccc1)n1cnc(-c2cc(Cl)ccc2-n2cc(Cl)nn2)cc1=O` [Example 126, (S)-2-(4-(5-chloro-2-(4-chloro-1H-1,2,3-triazol-1-yl)phenyl)-6-oxopyrimidin-1(6H)-yl)-3-phenyl-N-(1H-pyrazolo[3,4-b]pyridin-4-yl)propanamide], the figure is 6.67; as for `O=C(NC1CCc2ccccc21)[C@H](Cc1ccccc1)n1cnc(-c2cc(Cl)ccc2-n2cc(Cl)nn2)cc1=O` (stereo partly drawn) [Example 127, (2S)-2-(4-(5-chloro-2-(4-chloro-1H-1,2,3-triazol-1-yl)phenyl)-6-oxopyrimidin-1(6H)-yl)-N-(2,3-dihydro-1H-inden-1-yl)-3-phenylpropanamide], 6.08. Same read-out and setting: as for `O=C(NC1COc2ccccc21)[C@H](Cc1ccccc1)n1cnc(-c2cc(Cl)ccc2-n2cc(Cl)nn2)cc1=O` (stereo partly drawn) [Example 128, (2S)-2-(4-(5-chloro-2-(4-chloro-1H-1,2,3-triazol-1-yl)phenyl)-6-oxopyrimidin-1(6H)-yl)-N-(2,3-dihydrobenzofuran-3-yl)-3-phenylpropanamide], the figure is 6.08; as for `O=C(O)c1ccc(NC(=O)C(Cc2ccccc2)N2CCC(c3c(F)ccc(Cl)c3F)=CC2=O)cc1` (centres unmarked) [Example 129, 4-{2-[4-(3-Chloro-2,6-difluorophenyl)-6-oxo-1,2,3,6-tetrahydropyridin-1-yl]-3-phenylpropanamido}benzoic Acid], 7.11; as for `O=C(O)c1ccc(NC(=O)[C@H](Cc2ccccc2)N2CCC(c3cc(Cl)ccc3-n3ccnn3)=CC2=O)cc1` [Example 136, 4-[(2S)-2-{4-[5-chloro-2-(1H-1,2,3-triazol-1-yl)phenyl]-6-oxo-1,2,3,6-tetrahydropyridin-1-yl}-3-phenylpropanamido]benzoic Acid], 8.24. The same measure, in the same setting: as for `O=C(O)c1ccc(NC(=O)[C@H](Cc2ccccc2)N2CCC(c3c(-n4ccnn4)ccc(Cl)c3F)=CC2=O)cc1` [Example 137, 4-[(2S)-2-{4-[3-chloro-2-fluoro-6-(1H-1,2,3-triazol-1-yl)phenyl]-6-oxo-1,2,3,6-tetrahydropyridin-1-yl}-3-phenylpropanamido]benzoic Acid], the figure is 8.49; as for `O=C(O)c1ccc(NC(=O)[C@H](Cc2ccc(NC(=O)C3CC3)cc2)N2CCC(c3c(F)ccc(Cl)c3F)=CC2=O)cc1` [Example 140, (S)-4-(2-(4-(3-chloro-2,6-difluorophenyl)-6-oxo-3,6-dihydropyridin-1(2H)-yl)-3-(4-(cyclopropanecarboxamido)phenyl)propanamido)benzoic Acid], 6.26.
